Results published in patent US7067538B2, “MCP-1 receptor antagonists and methods of use thereof” (Warner-Lambert Company, LLC, priority 2002, dated 2006).
Like-named read-outs stand apart in the source and are kept apart here.

Key:
[1] = target: T1, MCP-1 receptor (300-19 cell membranes) (Homo sapiens, UniProt P41597); test: Inhibition of binding of 125I-MCP-1 to 300-19 cell membranes
T1 construct: host or cells: 300-19 cells (membrane preparation)
Description: Compounds were also assayed for their ability to inhibit the binding of radiolabeled MCP-1 to cell membranes. The materials and methods are set out below.
Membrane Preparation. 300-19 cells were harvested by centrifugation and washed with PBS (Dulbecco's phosphate-buffered saline w/o Ca and Mg). Cells were frozen at −80° C. overnight then resuspensed in ice cold lysis buffer (5 mM HEPES, 2 mM EDTA, 10 μg/mL of leupeptin, aprotinin, and chymostatin, and 200 μg/mL PMSF). The cell suspension was centrifuged at 1,000 rpm for 10 minutes and the supernatant was transferred and centrifuged at 14,000 rpm for 45 minutes at 4° C. then discarded. The resulting pellet was resuspended in stock buffer (10 mM HEPES, 300 mM sucrose, 20 μg/mL of leupeptin, aprotinin, and chymostatin, and 200 μg/mL PMSF), aliquoted, and frozen at −80° C. until use. Typical binding assays used 1.0 μg/well protein.
Prepared membranes were resuspended in binding buffer (50 mM Tris, 10 mM MgCl2, 1 mM EDTA pH 7.4) at 10 μg/mL protein. Membranes (1.0 μg/well) were incubated with ^125I-MCP-1 (0.15 nM) in the absence or presence of unlabeled chemokine (465 nM) or a compound of Examples 1–11, 14, 16, 19, 22, 27–30, 33–34, or [bis-(4-chloro-phenyl)-methanesulfonyl]-acetic acid methyl ester (0.001 μM–40 μM) for 3 hours at room temperature in a 96-well plate (total volume 250 μL). The reaction was terminated by filtration using a 96-well plate harvester (Packard Filtermate 196 Harvester). Filters (Packard GF/C) were prewet with 0.3% PEI containing 0.5% BSA and washed 5 times with wash buffer (DPBS, 0.3 MnCl2, and 0.25% BSA) prior to reaction termination. After terminating the reaction, filters were washed 6 times with wash buffer, and allowed to dry overnight. Scintillation fluid (Packard's Micro Scint 20) was added to each well and radioactivity bound was determined by liquid scintillation spectrometry. Nonspecific binding was determined in the presence of 465 nM unlabeled MCP-1. The IC50's (μM) of the inhibition of the binding of the iodinated MCP-1 are set out in Table 2.

[2] = system: MCP-1 response in THP-1 cells; test: Calcium flux in THP-1 cells stimulated with human MCP-1 (FLIPR); type: cell-based; settings: read-out: Calcium Flux IC50
Description: Compounds of were evaluated for their effect on calcium flux using methodology known in the art, e.g., Neote et al., Cell 1993, 72:415–425. Briefly, THP-1 cells were incubated with the fluorescence dye FLUO-4 for 1 hour, the cells were washed after this loading period, resuspended in HANKs buffer, and loaded into a 384-well plate. The cells were then incubated in the presence of a compound of Example 1–12, 14, 18, 22–23, 27–28, 30, or [bis-(4-chloro-phenyl)-methanesulfonyl]-acetic acid methyl ester. After a 30-minute incubation period, the cells were stimulated with 33 nM human MCP-1 and the calcium flux response recorded and quantified with a FLIPR^384® (384-well Fluorometric Imaging Plate Reader) ([…], Sunnyvale, Calif.). The IC50's (μM) of the inhibition of the maximal MCP-1 response are set out in Table 1.

[3] = 300-19 cell membranes 1.0 μg/well, 125I-MCP-1 0.15 nM, 3 hours at room temperature, read-out: IC50 of the inhibition of the binding of the iodinated MCP-1
[4] = 0.5 h, THP-1 cells, 30-minute incubation, stimulated with 33 nM human MCP-1, inhibition of the maximal MCP-1 response

T1 sequence (P41597 whole entry): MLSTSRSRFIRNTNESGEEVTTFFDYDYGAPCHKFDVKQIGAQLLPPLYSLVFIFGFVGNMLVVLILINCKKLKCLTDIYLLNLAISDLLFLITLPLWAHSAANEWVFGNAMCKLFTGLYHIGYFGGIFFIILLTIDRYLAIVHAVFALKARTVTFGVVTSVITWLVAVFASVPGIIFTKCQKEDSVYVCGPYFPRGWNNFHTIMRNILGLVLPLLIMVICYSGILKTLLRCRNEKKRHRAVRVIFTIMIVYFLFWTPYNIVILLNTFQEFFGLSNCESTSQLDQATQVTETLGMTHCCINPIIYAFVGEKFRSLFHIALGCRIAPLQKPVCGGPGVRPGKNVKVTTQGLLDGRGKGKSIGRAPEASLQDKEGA

Compound | IC50 [1, 3] | melting point | IC50 [2, 4] | IC50 ([2]; Homo sapiens, THP-1, 0.5 h) | IC50 [1]
O=C(Cc1ccc(F)cc1)CS(=O)(=O)C(c1ccc(Cl)cc1)c1ccc(Cl)cc1 [Example 33, 1-[Bis-(4-chloro-phenyl)-methanesulfonyl]-3-(4-fluoro-phenyl)-propan-2-one] | 14500 nM | 106 to 107 °C | – | – | –
COC(=O)CC(=O)CS(=O)(=O)C(c1ccc(Cl)cc1)c1ccc(Cl)cc1 [Example 22, 4-[Bis-(4-chloro-phenyl)-methanesulfonyl]-3-oxo-butyric acid methyl ester] | 1270 nM | 76 to 78 °C | 2470 nM | – | –
O=C(CS(=O)(=O)Cc1ccccc1)CS(=O)(=O)C(c1ccc(Cl)cc1)c1ccc(Cl)cc1 [Example 27, 1-[Bis-(4-chloro-phenyl)-methanesulfonyl]-3-phenylmethanesulfonyl-propan-2-one] | 2700 nM | 72 to 90 °C | 6520 nM | – | –
O=S(=O)(CC(O)(O)C(F)(F)F)C(c1ccc(F)cc1)c1ccc(F)cc1 [Example 28, 3-[Bis(4-fluorophenyl)methanesulfonyl]-1,1,1-trifluoropropane-2,2-diol] | – | – | – | 417 nM | 210 nM
O=C(COc1ccc(F)cc1F)CS(=O)(=O)C(c1ccc(Cl)cc1)c1ccc(Cl)cc1 | – | 54 to 56 °C | – | – | –
CN(C)C(=O)c1ccc(C(=O)CSC(c2ccc(Cl)cc2)c2ccc(Cl)cc2)s1 | – | 150 to 151 °C | – | – | –
CC#CC(=O)CS(=O)(=O)C(c1ccc(Cl)cc1)c1ccc(Cl)cc1 [Example 6, 1-[Bis-(4-chloro-phenyl)-methanesulfonyl]-pent-3-yn-2-one] | – | – | 1340 nM | – | –
CCC(=O)CS(=O)(=O)C(c1ccc(Cl)cc1)c1ccc(Cl)cc1 [Example 2, 1-[Bis-(4-chloro-phenyl)-methanesulfonyl]-butan-2-one] | – | – | – | 7650 nM | 7370 nM
O=C(CCc1ccccc1)CS(=O)(=O)C(c1ccc(Cl)cc1)c1ccc(Cl)cc1 | – | 106 to 107 °C | – | – | –
O=C(COc1ccccc1)CS(=O)(=O)C(c1ccc(Cl)cc1)c1ccc(Cl)cc1 [Example 10, 1-[Bis-(4-chloro-phenyl)-methanesulfonyl]-3-phenoxy-propan-2-one] | 3450 nM | 110 to 112 °C | 984 nM | – | –
Cn1ccnc1C(=O)CS(=O)(=O)C(c1ccc(Cl)cc1)c1ccc(Cl)cc1 [Example 16, 2-[Bis-(4-chloro-phenyl)-methanesulfonyl]-1-(1-methyl-1H-imidazol-2-yl)-ethanone] | 12700 nM | 160 to 161 °C | – | – | –
CC(=O)CCS(=O)(=O)C(c1ccc(Cl)cc1)c1ccc(Cl)cc1 | – | 103 to 105 °C | – | – | –
CC(C)(C)C(=O)CS(=O)(=O)C(c1ccc(Cl)cc1)c1ccc(Cl)cc1 | – | 128 to 130 °C | – | – | –
O=C(CS(=O)(=O)C(c1ccc(Cl)cc1)c1ccc(Cl)cc1)c1cccs1 [Example 19, 2-[Bis-(4-chloro-phenyl)-methanesulfonyl]-1-thiophen-2-yl-ethanone] | 6150 nM | 150 to 151 °C | – | – | –
COc1ccc(OCC(=O)CS(=O)(=O)C(c2ccc(Cl)cc2)c2ccc(Cl)cc2)cc1 [Example 11, 1-[Bis-(4-chloro-phenyl)-methanesulfonyl]-3-(4-methoxy-phenoxy)-propan-2-one] | 3400 nM | 116 to 117 °C | 4750 nM | – | –
C/C=C/C(=O)CS(=O)(=O)C(c1ccc(Cl)cc1)c1ccc(Cl)cc1 | – | 114 to 116 °C | – | – | –
O=C(CC(=O)Nc1ccccc1Cl)CS(=O)(=O)C(c1ccc(Cl)cc1)c1ccc(Cl)cc1 [Example 23, 4-[Bis-(4-chloro-phenyl)-methanesulfonyl]-N-(2-chloro-phenyl)-3-oxo-butyramide] | – | 92 to 95 °C | 1520 nM | – | –
O=C(CC(F)(F)F)CS(=O)(=O)C(c1ccc(Cl)cc1)c1ccc(Cl)cc1 | – | 48 to 50 °C | – | – | –
O=C(CBr)CS(=O)(=O)C(c1ccc(Cl)cc1)c1ccc(Cl)cc1 [Example 3, 1-[Bis-(4-chloro-phenyl)-methanesulfonyl]-3-bromo-propan-2-one] | 165 nM | 122 to 123 °C | 1120 nM | – | –
O=S(=O)(CC(O)(O)C(F)(F)F)C(c1ccc(Cl)cc1)c1ccc(Cl)c(Cl)c1 (stereo not shown) [Example 30, 3-[(4-Chlorophenyl)-(3,4-dichlorophenyl)methanesulfonyl]-1,1,1-trifluoropropane-2,2-diol] | 77 nM | – | 393 nM | – | –
CC(=O)OCC(=O)CS(=O)(=O)C(c1ccc(Cl)cc1)c1ccc(Cl)cc1 | – | 57 to 60 °C | – | – | –
O=S(=O)(CC(O)(O)C(F)(F)F)C(c1ccc(C(F)(F)F)cc1)c1ccc(C(F)(F)F)cc1 [Example 29, 3-[Bis(4-trifluoromethyl-phenyl)methanesulfonyl]-1,1,1-trifluoropropane-2,2-diol] | 3000 nM | – | – | – | –
COCC(=O)CS(=O)(=O)C(c1ccc(Cl)cc1)c1ccc(Cl)cc1 [Example 14, 1-[Bis-(4-chloro-phenyl)-methanesulfonyl]-3-methoxy-propan-2-one] | – | 124 to 125 °C | – | 3900 nM | 1350 nM
CN(C)C(=O)c1ccc(C(=O)CS(=O)(=O)C(c2ccc(Cl)cc2)c2ccc(Cl)cc2)s1 [Example 18, 5-(2-[Bis-(4-chloro-phenyl)-methanesulfonyl]-acetyl)-thiophene-2-carboxylic acid dimethylamide] | – | 192 to 194 °C | 5200 nM | – | –
O=C(CS(=O)(=O)C(c1ccc(Cl)cc1)c1ccc(Cl)cc1)c1ccccn1 [Example 34, 2-[Bis-(4-chloro-phenyl)-methanesulfonyl]-1-pyridin-2-yl-ethanone] | 4250 nM | 120 to 121 °C | – | – | –
CC(=O)CS(=O)(=O)C(c1ccc(Cl)cc1)c1ccc(Cl)cc1 [Example 1, 1-[Bis-(4-chloro-phenyl)-methanesulfonyl]-propan-2-one] | – | 114 to 115 °C | – | 2200 nM | 1150 nM
O=C(Cc1ccccc1)CS(=O)(=O)C(c1ccc(Cl)cc1)c1ccc(Cl)cc1 [Example 9, 1-[Bis-(4-chloro-phenyl)-methanesulfonyl]-3-phenyl-propan-2-one] | 6300 nM | 54 to 56 °C | 2900 nM | – | –
O=C(CS(=O)(=O)C(c1ccc(Cl)cc1)c1ccc(Cl)cc1)c1ccco1 [Example 5, 2-[Bis-(4-chloro-phenyl)-methanesulfonyl]-1-furan-2-yl-ethanone] | 2550 nM | 138 to 139 °C | 7250 nM | – | –
CC(C)Cc1ccc(C(c2ccc(Cl)cc2)S(=O)(=O)CC(=O)C(F)(F)F)cc1 (stereo not shown) | – | 45 to 50 °C | – | – | –
O=C(COc1ccc(Cl)cc1)CS(=O)(=O)C(c1ccc(Cl)cc1)c1ccc(Cl)cc1 [Example 12, 1-[Bis-(4-chloro-phenyl)-methanesulfonyl]-3-(4-chloro-phenoxy)-propan-2-one] | – | 105 to 107 °C | 8150 nM | – | –
